Read-outs that look alike come from different tables or passages of the source.
Key:
[1] = tested on: primary rat mixed cortical cells; experiment: In vitro myelination assay (MBP positive myelin strands, fold myelin pixels above background); type: cell-based; conditions: Rattus norvegicus; for fold induction at 1 µM: 1.0 μM compound; for fold induction at 10 µM: 10.0 μM compound
In short: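 Fourteen-day treatment of primary P1 rat mixed cortical cultures, re-dosed at days 6 and 10, at 1.0 μM and 10.0 μM. MBP immunofluorescence was imaged at 10× and myelin strands quantified by software, normalised to untreated wells as fold above background.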

[2] = tested on: C57BL/6 mice demyelinated with cuprizone; experiment: In vivo mouse cuprizone assay (new myelin, MBP positive / MOG negative area); conditions: for effect measured as new myelin generated in response to compound treatment compared to control with no added compound: Regimen A (QD or BID for 14 days via oral gavage), various doses; for effect (new myelin generated compared to control): Regimen A, oral gavage
Source text: Assays for Detecting and Measuring Remyelination Properties of Compounds In Vivo Mouse Cuprizone Assay:
Cuprizone Feeding Protocol:
2 month old female C57BL/6 mice (Stock Number: 000664) were purchased from Jackson Labs and fed for 4-10 months with a 0.2% cuprizone chow (provided by Research Diets, Product # D10020701R, Description AIN-76A Rodent Diet with 0.2% cuprizone) using cuprizone purchased from Sigma (Cat #14690-100G). Chow was provided ad libitum, and refreshed every 4 days to ensure stability of the cuprizone. Mice were maintained on this diet for 4-10 months before initiation of the experiments.
1) 24 hours prior to the start of dosing, 6 to 10 mice were switched from cuprizone chow to normal chow (Picolab rodent diet 20 EXT IRR 5053, irradiated) without added cuprizone. These mice were maintained on normal chow throughout the course of dosing.
2) 6 to 10 mice per group were randomized into new cages such that mice that were housed in one cage during the cuprizone diet were not housed together in one dose group during the study.
3) Mice were dosed with compound in one of two regimens: Regimen A: mice were dosed QD or BID for 14 days via oral gavage. Regimen B: mice were dosed QD or BID for 14 days via IP injection. However, other dosing schedules and/or routes of administration may also be used.
4) On the last day of dosing, dried blood spots were collected at multiple time points following the last dose. Often this was 30 minutes, 2, 6 and 24 hours following the final dose on day 14 via the tail vein.
Perfusion and Sectioning:
1) The day after the last day of dosing, mice were transcardially perfused with 12 ml of PBS (Sigma, P4417) followed by 20 ml of 3.2% paraformaldehyde in PBS (Electron Microscopy Sciences #15714-S). The brains were removed via standard dissection techniques and each was postfixed in 3.2% paraformaldehyde (20 ml) for 24-48 hours at room temperature in sealed scintillation vials.
2) Serial 50 micron sections were collected through the anterior posterior extent of the brain, from just behind the olfactory bulb, through visual cortex using a vibrating microtome, the V-STAR (described in International Publication No. WO 2013/012799 and U.S. Pat. No. 8,967,024 both of which are incorporated herein by reference in their entirety). Sections were collected in phosphate buffered saline (PBS). Vibratome speed was set to 1.1 mm/s and amplitude was set to 0.8 mm.
3) A series of every 24th section was removed for staining yielding 5 sections per brain.
1) Tissue sections were stained using an automated system for processing blots (hereinafter the “blotinator”) (described in WO2011/087646 and U.S. Pat. Nos. 8,337,754 and 8,679,406 each of which is incorporated herein by reference in its entirety). Brain sections were placed in the blotinator plate and bathed in PBS. The blotinator applied primary antibodies (MOG and MBP together) and Hoechst nuclear stain for 12 hours at room temperature with constant shaking.
The following stains were diluted in blocking buffer (described below):
Hoechst nuclear stain (0.5 mg/ml)(bisBenzimide H 33342 trihydrochloride Sigma #33342).
Myelin basic Protein (MBP) antibody (Abcam Cat # ab7349) was diluted at a 1:750 ratio in blocking buffer).
Myelin Oligodendrocyte Glycoprotein (MOG) (R&D systems Cat # AF2439) was diluted at a 1:250 ratio in blocking buffer.
Antibodies were diluted in blocking buffer, which consisted of 0.3% Triton X-100 (Sigma Cat #234729), 0.02% Sodium Azide (Sigma Cat # S2002) and 8% fetal bovine serum in PBS (Sigma Cat # F2442).
2) The blotinator washed the samples 4 times for 5 minutes each with a wash buffer (0.2% Triton X-100 in PBS).
3) The blotinator applied secondary antibodies diluted in blocking buffer and incubated them for 2 hours with constant shaking.
Alexa 488 donkey anti-rat secondary (Life technologies Cat # A-21208) was diluted at 1:1000 in blocking buffer. […]

[3] = relative to baseline of no added compound, read-out: Fold myelin pixels above background
[4] = relative to baseline of no added compound, read-out: Fold myelin pixels above background, 1.0 μM
[5] = relative to baseline of no added compound, read-out: Fold myelin pixels above background, 10.0 μM
[6] = read-out: Fold myelin pixels above background relative to baseline of no added compound

| SMILES | fold induction at 1 µM [1, 3] | fold induction at 10 µM [1, 3] | effect measured as new myelin generated in response to compound treatment compared to control with no added compound [2] | effect (new myelin generated compared to control) ([2]; 30 mpk) | fold induction at 1 µM [1, 4] | fold induction at 10 µM [1, 5] | other results |
| --- | --- | --- | --- | --- | --- | --- | --- |
| Fc1ccc(-n2cnc(Nc3cc(C(F)F)cc(N4CCN(C5COC5)CC4)n3)n2)cc1F [Compound 524, 4-(difluoromethyl)-N-[1-(3,4-difluorophenyl)-1,2,4-triazol-3-yl]-6-[4-(oxetan-3-yl)piperazin-1-yl]pyridin-2-amine] | 100 to 1000 | 100 to 1000 | positive effect | positive effect | – | – | effect (new myelin generated compared to control) ([2]; 10 mpk): positive effect; effect (new myelin generated compared to control) ([2]; 20 mpk): positive effect |
| Cc1cc(Nc2ncn(-c3cc(F)cc(F)c3)n2)nc(N2CCN(C3COC3)CC2)c1 [Compound 331, N-[1-(3,5-difluorophenyl)-1,2,4-triazol-3-yl]-4-methyl-6-[4-(oxetan-3-yl)piperazin-1-yl]pyridin-2-amine] | – | – | positive effect | positive effect | 1 to 10 | 10 to 100 | effect (new myelin generated compared to control) ([2]; 20 mpk): positive effect; effect (new myelin generated compared to control) ([2]; 40 mpk): positive effect |
| Cc1cc(Nc2ncn(-c3cc(F)cc(F)c3)n2)cc(N2CC(N3CCOCC3)C2)c1 [Compound 485, 1-(3,5-difluorophenyl)-N-[3-methyl-5-(3-morpholinoazetidin-1-yl)phenyl]-1,2,4-triazol-3-amine] | 10 to 100 | 1 to 10 | positive effect | positive effect | – | – | effect (new myelin generated compared to control) ([2]; 20 mpk): positive effect |
| Cc1cc(Nc2ncn(-c3cccc(F)c3)n2)cc(N2CCN(C3COC3)CC2)c1 [Compound 406, 1-(3-fluorophenyl)-N-[3-methyl-5-[4-(oxetan-3-yl)piperazin-1-yl]phenyl]-1,2,4-triazol-3-amine] | 1000 to 10000 | ≤ 1 | positive effect | – | – | – | effect (new myelin generated compared to control) ([2]; 25 mpk): positive effect; effect (new myelin generated compared to control) ([2]; 50 mpk): positive effect |
| Fc1cc(F)cc(-n2cnc(Nc3cc(C(F)F)cc(N4CCN(C5COC5)CC4)n3)n2)c1 [Compound 512, 4-(difluoromethyl)-N-[1-(3,5-difluorophenyl)-1,2,4-triazol-3-yl]-6-[4-(oxetan-3-yl)piperazin-1-yl]pyridin-2-amine] | 100 to 1000 | 100 to 1000 | positive effect | – | – | – | effect (new myelin generated compared to control) ([2]; 50 mpk): positive effect |
| Cc1cc(Nc2ncn(-c3cc(F)cc(F)c3)n2)cc(N2CCN(C3(C)COC3)CC2)c1 [Compound 215, 1-(3,5-difluorophenyl)-N-[3-methyl-5-[4-(3-methyloxetan-3-yl)piperazin-1-yl]phenyl]-1,2,4-triazol-3-amine] | – | – | positive effect | positive effect | 10 to 100 | 10 to 100 | effect (new myelin generated compared to control) ([2]; 90 mpk): positive effect |
| Cc1cc(Nc2ncn(-c3cc(F)cc(F)c3)n2)cc(N2CCN(C3COC3)CC2)c1 [Compound 33, 1-(3,5-difluorophenyl)-N-[3-methyl-5-[4-(oxetan-3-yl)piperazin-1-yl]phenyl]-1,2,4-triazol-3-amine] | – | – | positive effect | – | 100 to 1000 | ≤ 1 | effect (new myelin generated compared to control) ([2]; 10 mpk): positive effect; effect (new myelin generated compared to control) ([2]; 25 mpk): positive effect; effect (new myelin generated compared to control) ([2]; 50 mpk): positive effect |
| Cc1cc(Nc2ncn(-c3ccccc3)n2)cc(N2CCN(C)CC2)c1 [Compound 247, N-[3-methyl-5-(4-methylpiperazin-1-yl)phenyl]-1-phenyl-1,2,4-triazol-3-amine] | – | – | positive effect | – | 100 to 1000 | ≤ 1 | effect (new myelin generated compared to control) ([2]; 10 mpk): positive effect; effect (new myelin generated compared to control) ([2]; 25 mpk): positive effect; effect (new myelin generated compared to control) ([2]; 50 mpk): positive effect |
| CCc1cc(Nc2ncn(-c3cc(F)cc(F)c3)n2)cc(N2CCN(C3COC3)CC2)c1 [Compound 107, 1-(3,5-difluorophenyl)-N-[3-ethyl-5-[4-(oxetan-3-yl)piperazin-1-yl]phenyl]-1,2,4-triazol-3-amine] | – | – | positive effect | positive effect | 1000 to 10000 | 1000 to 10000 | effect (new myelin generated compared to control) ([2]; 90 mpk): positive effect |
| COc1cc(Nc2ncn(-c3ccc(F)c(F)c3)n2)cc(N2CCN(C3COC3)CC2)c1 [Compound 183, 1-(3,4-difluorophenyl)-N-[3-methoxy-5-[4-(oxetan-3-yl)piperazin-1-yl]phenyl]-1,2,4-triazol-3-amine] | – | – | – | – | 100 to 1000 | 10 to 100 | – |
| Fc1cc(F)cc(-n2cnc(Nc3cc(N4CCN(C5COC5)CC4)cc(N4CC(N5CCOCC5)C4)c3)n2)c1 [Compound 701, 1-(3,5-difluorophenyl)-N-[3-(3-morpholinoazetidin-1-yl)-5-[4-(oxetan-3-yl)piperazin-1-yl]phenyl]-1,2,4-triazol-3-amine] | 10 to 100 | ≤ 1 | – | – | – | – | – |
| COc1cc(Nc2ncn(-c3cccc(C(F)F)c3)n2)nc(N2CCN(C3COC3)CC2)c1 [Compound 639, N-[1-[3-(difluoromethyl)phenyl]-1,2,4-triazol-3-yl]-4-methoxy-6-[4-(oxetan-3-yl)piperazin-1-yl]pyridin-2-amine] | 1 to 10 | 1 to 10 | – | – | – | – | – |
| COCC1CCCN(c2cc(C)cc(Nc3ncn(-c4cc(F)cc(F)c4)n3)n2)C1 (stereo not shown) [Compound 786, N-[1-(3,5-difluorophenyl)-1,2,4-triazol-3-yl]-6-[3-(methoxymethyl)-1-piperidyl]-4-methyl-pyridin-2-amine] | 1 to 10 | ≤ 1 | – | – | – | – | – |
| Cc1cc(NCC(=O)N2CCCC2)cc(Nc2ncn(-c3cc(F)cc(F)c3)n2)c1 [Compound 993, 2-[3-[[1-(3,5-difluorophenyl)-1,2,4-triazol-3-yl]amino]-5-methyl-anilino]-1-pyrrolidin-1-yl-ethanone] | – | – | – | – | – | – | fold induction at 1 µM [1, 6]: 1 to 10; fold induction at 10 µM [1, 6]: 10 to 100 |

Reference: US10766869B2, “Triazoles for the treatment of demyelinating dieases” (Vertex Pharmaceuticals Incorporated, priority 2015, dated 2020)
